Measurements: ChEMBL document CHEMBL3885881, “DrugMatrix”

Species: Rattus norvegicus
Assay: DrugMatrix - Regimen: Daily Repeat
Assay type: toxicity, organism-based, Sprague-Dawley
Parameters: regimen Daily Repeat, gender Male, age 6-8 weeks
Conditions: in vivo, po, route oral GAVAGE, vehicle .5 % CMC; for ABSOLUTE BASOPHIL / ABSOLUTE EOSINOPHIL / ABSOLUTE LYMPHOCYTE / ABSOLUTE MONOCYTE / ABSOLUTE SEGMENTED NEUTROPHIL / BASOPHIL / EOSINOPHIL / ERYTHROCYTE COUNT / HEMATOCRIT / HEMOGLOBIN / LEUKOCYTE COUNT / LYMPHOCYTE / MEAN CORPUSCULAR HEMOGLOBIN / MEAN CORPUSCULAR HEMOGLOBIN CONCENTRATION / MEAN CORPUSCULAR VOLUME / MONOCYTE / NEUTROPHIL / NUCLEATED RED BLOOD CELLS / PLATELET COUNT: tissue Blood; for ALANINE AMINOTRANSFERASE / ALBUMIN / ALKALINE PHOSPHATASE / ASPARTATE AMINOTRANSFERASE / BLOOD UREA NITROGEN / CARBON DIOXIDE / CHLORIDE / CHOLESTEROL / CREATINE PHOSPHOKINASE / CREATININE / GLUCOSE / LACTATE DEHYDROGENASE / LIPASE / PHOSPHORUS / POTASSIUM / SODIUM / TOTAL BILIRUBIN / TOTAL PROTEIN / URIC ACID: tissue Plasma
[1] = 10 mg/kg, 72 h, dose level Low, time 3 day
[2] = 10 mg/kg, 120 h, dose level Low, time 5 day
[3] = 2000 mg/kg, 72 h, dose level High, time 3 day
[4] = 2000 mg/kg, 120 h, dose level High, time 5 day

For CC(=O)O[C@]1(C(C)=O)CC[C@H]2[C@@H]3C=C(Cl)C4=CC(=O)CC[C@]4(C)[C@H]3CC[C@@]21C [CHLORMADINONE ACETATE], the “ABSOLUTE BASOPHIL” value [1] was 0 CELLS/uL, the “ABSOLUTE EOSINOPHIL” value [1] was 58.33 CELLS/uL and the “ABSOLUTE LYMPHOCYTE” value [1] was 11175 CELLS/uL. The “ABSOLUTE MONOCYTE” value [1] was 59.67 CELLS/uL, the “ABSOLUTE SEGMENTED NEUTROPHIL” value [1] was 507 CELLS/uL and the BASOPHIL [1] was 0%. The EOSINOPHIL [1] was 0.33%, the “ERYTHROCYTE COUNT” value [1] was 5.63 x10E6/uL and the HEMATOCRIT [1] was 35.5%. For the same compound, the HEMOGLOBIN [1] was 14.3 G/DL, the “LEUKOCYTE COUNT” value [1] was 11.8 x10E3/uL and the LYMPHOCYTE [1] was 94.67%. The “MEAN CORPUSCULAR HEMOGLOBIN” value [1] was 25.37 pg, the “MEAN CORPUSCULAR HEMOGLOBIN CONCENTRATION” value [1] was 40.27 G/DL and the “MEAN CORPUSCULAR VOLUME” value [1] was 63 fL. For the same compound, the MONOCYTE [1] was 0.67%, the NEUTROPHIL [1] was 4.33% and the “NUCLEATED RED BLOOD CELLS” value [1] was 0 /100WBC. For the same compound, the “PLATELET COUNT” value [1] was 925.33 x10E3/uL, the “ALANINE AMINOTRANSFERASE” value [1] was 52 u/L and the ALBUMIN [1] was 4.5 G/DL. The “ALKALINE PHOSPHATASE” value [1] was 475 u/L, the “ASPARTATE AMINOTRANSFERASE” value [1] was 70.67 u/L and the “BLOOD UREA NITROGEN” value [1] was 17.67 mg/dL. The “CARBON DIOXIDE” value [1] was 33 mmol/L, the CHLORIDE [1] was 101 MEQ/L and the CHOLESTEROL [1] was 81.67 mg/dL. The “CREATINE PHOSPHOKINASE” value [1] was 138.33 u/L, the CREATININE [1] was 0.17 mg/dL and the GLUCOSE [1] was 135.67 mg/dL. The “LACTATE DEHYDROGENASE” value [1] was 134.67 u/L, the LIPASE [1] was 12 u/L and the PHOSPHORUS [1] was 11.17 mg/dL. The POTASSIUM [1] was 6.06 MEQ/L, the SODIUM [1] was 149.35 MEQ/L and the “TOTAL BILIRUBIN” value [1] was 0.3 mg/dL. For the same compound, the “TOTAL PROTEIN” value [1] was 6.37 G/DL, the “URIC ACID” value [1] was 0.67 mg/dL and the “ABSOLUTE BASOPHIL” value [2] was 0 CELLS/uL. The “ABSOLUTE EOSINOPHIL” value [2] was 0 CELLS/uL, the “ABSOLUTE LYMPHOCYTE” value [2] was 14416.33 CELLS/uL and the “ABSOLUTE MONOCYTE” value [2] was 46.33 CELLS/uL. The “ABSOLUTE SEGMENTED NEUTROPHIL” value [2] was 1304 CELLS/uL, the BASOPHIL [2] was 0% and the EOSINOPHIL [2] was 0%. The “ERYTHROCYTE COUNT” value [2] was 6.23 x10E6/uL, the HEMATOCRIT [2] was 37.17% and the HEMOGLOBIN [2] was 14.57 G/DL. The “LEUKOCYTE COUNT” value [2] was 15.77 x10E3/uL, the LYMPHOCYTE [2] was 91.67% and the “MEAN CORPUSCULAR HEMOGLOBIN” value [2] was 23.47 pg. The “MEAN CORPUSCULAR HEMOGLOBIN CONCENTRATION” value [2] was 39.23 G/DL, the “MEAN CORPUSCULAR VOLUME” value [2] was 59.77 fL and the MONOCYTE [2] was 0.33%. For the same compound, the NEUTROPHIL [2] was 8%, the “NUCLEATED RED BLOOD CELLS” value [2] was 0 /100WBC and the “PLATELET COUNT” value [2] was 1116.33 x10E3/uL. The “ALANINE AMINOTRANSFERASE” value [2] was 54.33 u/L, the ALBUMIN [2] was 4.47 G/DL and the “ALKALINE PHOSPHATASE” value [2] was 380.67 u/L. The “ASPARTATE AMINOTRANSFERASE” value [2] was 92.67 u/L, the “BLOOD UREA NITROGEN” value [2] was 14 mg/dL and the “CARBON DIOXIDE” value [2] was 25.67 mmol/L. The CHLORIDE [2] was 102.33 MEQ/L, the CHOLESTEROL [2] was 79.67 mg/dL and the “CREATINE PHOSPHOKINASE” value [2] was 290.67 u/L. For the same compound, the CREATININE [2] was 0.13 mg/dL, the GLUCOSE [2] was 156.67 mg/dL and the “LACTATE DEHYDROGENASE” value [2] was 269 u/L. It also gave an LIPASE [2] of 9.67 u/L, a PHOSPHORUS [2] of 12.67 mg/dL and a POTASSIUM [2] of 7.15 MEQ/L. The SODIUM [2] was 146.13 MEQ/L, the “TOTAL BILIRUBIN” value [2] was 0.2 mg/dL and the “TOTAL PROTEIN” value [2] was 6.27 G/DL. For the same compound, the “URIC ACID” value [2] was 1.77 mg/dL, the “ABSOLUTE BASOPHIL” value [3] was 0 CELLS/uL and the “ABSOLUTE EOSINOPHIL” value [3] was 87.33 CELLS/uL. For the same compound, the “ABSOLUTE LYMPHOCYTE” value [3] was 10368.67 CELLS/uL, the “ABSOLUTE MONOCYTE” value [3] was 145 CELLS/uL and the “ABSOLUTE SEGMENTED NEUTROPHIL” value [3] was 665.67 CELLS/uL. For the same compound, the BASOPHIL [3] was 0%, the EOSINOPHIL [3] was 0.67% and the “ERYTHROCYTE COUNT” value [3] was 5.63 x10E6/uL. For the same compound, the HEMATOCRIT [3] was 36.4%, the HEMOGLOBIN [3] was 14.6 G/DL and the “LEUKOCYTE COUNT” value [3] was 11.27 x10E3/uL. The LYMPHOCYTE [3] was 90.67%, the “MEAN CORPUSCULAR HEMOGLOBIN” value [3] was 25.93 pg and the “MEAN CORPUSCULAR HEMOGLOBIN CONCENTRATION” value [3] was 40.1 G/DL. The “MEAN CORPUSCULAR VOLUME” value [3] was 64.67 fL, the MONOCYTE [3] was 1.33% and the NEUTROPHIL [3] was 7.33%. For the same compound, the “NUCLEATED RED BLOOD CELLS” value [3] was 0 /100WBC, the “PLATELET COUNT” value [3] was 1192 x10E3/uL and the “ALANINE AMINOTRANSFERASE” value [3] was 57 u/L. For the same compound, the ALBUMIN [3] was 4.57 G/DL, the “ALKALINE PHOSPHATASE” value [3] was 388.67 u/L and the “ASPARTATE AMINOTRANSFERASE” value [3] was 82 u/L. The “BLOOD UREA NITROGEN” value [3] was 16.33 mg/dL, the “CARBON DIOXIDE” value [3] was 29 mmol/L and the CHLORIDE [3] was 99 MEQ/L. The CHOLESTEROL [3] was 79.67 mg/dL, the “CREATINE PHOSPHOKINASE” value [3] was 341.33 u/L and the CREATININE [3] was 0.18 mg/dL. For the same compound, the GLUCOSE [3] was 149.33 mg/dL, the “LACTATE DEHYDROGENASE” value [3] was 132.67 u/L and the LIPASE [3] was 10 u/L. It also gave a PHOSPHORUS [3] of 12.23 mg/dL, a POTASSIUM [3] of 6.81 MEQ/L and an SODIUM [3] of 144.97 MEQ/L. For the same compound, the “TOTAL BILIRUBIN” value [3] was 0.17 mg/dL, the “TOTAL PROTEIN” value [3] was 6.6 G/DL and the “URIC ACID” value [3] was 1.8 mg/dL. For the same compound, the “ABSOLUTE BASOPHIL” value [4] was 0 CELLS/uL, the “ABSOLUTE EOSINOPHIL” value [4] was 0 CELLS/uL and the “ABSOLUTE LYMPHOCYTE” value [4] was 10781.67 CELLS/uL. The “ABSOLUTE MONOCYTE” value [4] was 45 CELLS/uL, the “ABSOLUTE SEGMENTED NEUTROPHIL” value [4] was 840 CELLS/uL and the BASOPHIL [4] was 0%. For the same compound, the EOSINOPHIL [4] was 0%, the “ERYTHROCYTE COUNT” value [4] was 6.06 x10E6/uL and the HEMATOCRIT [4] was 36.83%. For the same compound, the HEMOGLOBIN [4] was 14.67 G/DL, the “LEUKOCYTE COUNT” value [4] was 11.67 x10E3/uL and the LYMPHOCYTE [4] was 92%. The “MEAN CORPUSCULAR HEMOGLOBIN” value [4] was 24.23 pg, the “MEAN CORPUSCULAR HEMOGLOBIN CONCENTRATION” value [4] was 39.8 G/DL and the “MEAN CORPUSCULAR VOLUME” value [4] was 60.87 fL. For the same compound, the MONOCYTE [4] was 0.33%, the NEUTROPHIL [4] was 7.67% and the “NUCLEATED RED BLOOD CELLS” value [4] was 0.33 /100WBC. The “PLATELET COUNT” value [4] was 996.33 x10E3/uL, the “ALANINE AMINOTRANSFERASE” value [4] was 60.33 u/L and the ALBUMIN [4] was 4.3 G/DL. For the same compound, the “ALKALINE PHOSPHATASE” value [4] was 310.33 u/L, the “ASPARTATE AMINOTRANSFERASE” value [4] was 77.67 u/L and the “BLOOD UREA NITROGEN” value [4] was 17.67 mg/dL. The “CARBON DIOXIDE” value [4] was 24.67 mmol/L, the CHLORIDE [4] was 102.33 MEQ/L and the CHOLESTEROL [4] was 67.33 mg/dL. The “CREATINE PHOSPHOKINASE” value [4] was 145.33 u/L, the CREATININE [4] was 0.2 mg/dL and the GLUCOSE [4] was 139 mg/dL. The “LACTATE DEHYDROGENASE” value [4] was 117.33 u/L, the LIPASE [4] was 9.67 u/L and the PHOSPHORUS [4] was 12.2 mg/dL. The POTASSIUM [4] was 7.04 MEQ/L, the SODIUM [4] was 143.63 MEQ/L and the “TOTAL BILIRUBIN” value [4] was 0.2 mg/dL. For the same compound, the “TOTAL PROTEIN” value [4] was 6.37 G/DL and the “URIC ACID” value [4] was 1.4 mg/dL.
